ChEMBL document CHEMBL1201862, “PubChem BioAssay data set” (2004)
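Step 1: Grow cells in 96-well plates. Step 2: Expose to compound for 48 hours at 5 concentrations. Step 3: Interpolate endpoints linearly; if unreached, use highest concentration. GI50 = concentration required for 50% inhibition of growth.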 The source made the active and inactive calls. No stated cut-off is given here; in the data, active = GI50 up to about 1.1 µM and inactive = higher.

Tests used:
Experiment in all cases: NCI tumour cell line growth inhibition, 48 h
NCI-H522 = tested on: NCI-H522
SK-MEL-2 = tested on: SK-MEL-2
DLD-1 = tested on: DLD-1
RXF 393 = tested on: RXF 393
KM-20L2 = tested on: KM-20L2
SF-539 = tested on: SF-539
MOLT-4 = tested on: MOLT-4
KM12 = tested on: KM12
CCRF-CEM = tested on: CCRF-CEM
HCC 2998 = tested on: HCC 2998
HOP-62 = tested on: HOP-62
K562 = tested on: K562
LXFL 529 = tested on: LXFL 529
SF-268 = tested on: SF-268
M14 = tested on: M14
M19-MEL = tested on: M19-MEL
HCT-116 = tested on: HCT-116
OVCAR-5 = tested on: OVCAR-5
TK-10 = tested on: TK-10
OVCAR-8 = tested on: OVCAR-8
A549 = tested on: A549
786-0 = tested on: 786-0
SNB-78 = tested on: SNB-78
CAKI-1 = tested on: CAKI-1
HT-29 = tested on: HT-29
UACC-257 = tested on: UACC-257
NCI-H460 = tested on: NCI-H460
HL-60 = tested on: HL-60
HOP-18 = tested on: HOP-18
SNB-75 = tested on: SNB-75
SN12C = tested on: SN12C
NCI-H226 = tested on: NCI-H226
SK-MEL-5 = tested on: SK-MEL-5
NCI-H23 = tested on: NCI-H23
Malme-3M = tested on: Malme-3M
IGROV-1 = tested on: IGROV-1
ACHN = tested on: ACHN
DMS-273 = tested on: DMS-273
COLO 205 = tested on: COLO 205
OVCAR-3 = tested on: OVCAR-3
OVCAR-4 = tested on: OVCAR-4
RPMI-8226 = tested on: RPMI-8226
XF498 = tested on: XF498
SNB-19 = tested on: SNB-19
SF-295 = tested on: SF-295
HCT-15 = tested on: HCT-15
SK-MEL-28 = tested on: SK-MEL-28
UACC-62 = tested on: UACC-62
UO-31 = tested on: UO-31
EKVX = tested on: EKVX
SW-620 = tested on: SW-620
HOP-92 = tested on: HOP-92
SK-OV-3 = tested on: SK-OV-3
U-251 = tested on: U-251
SR = tested on: SR
A498 = tested on: A498
LOX IMVI = tested on: LOX IMVI
DMS-114 = tested on: DMS-114

## CC1=Cc2cccc(C)c2C(=O)C1=O [O-HIBISCANONE]
NCI-H522
  GI50: 4.72 µM (inactive)
SK-MEL-2
  GI50: 17.3 µM (inactive)
DLD-1
  GI50: 2.13 µM (inactive)
RXF 393
  GI50: 4.66 µM (inactive)
KM-20L2
  GI50: 18.9 µM (inactive)
SF-539
  GI50: 6.56 µM (inactive)
MOLT-4
  GI50: 0.52 µM (active)
KM12
  GI50: 4.71 µM (inactive)
CCRF-CEM
  GI50: 0.379 µM (active)
HCC 2998
  GI50: 14.6 µM (inactive)
HOP-62
  GI50: 17.5 µM (inactive)
K562
  GI50: 0.617 µM (active)
LXFL 529
  GI50: 2.11 µM (inactive)
SF-268
  GI50: 11.3 µM (inactive)
M14
  GI50: 4.67 µM (inactive)
M19-MEL
  GI50: 7.67 µM (inactive)
HCT-116
  GI50: 2.73 µM (inactive)
OVCAR-5
  GI50: 19 µM (inactive)
TK-10
  GI50: 2.39 µM (inactive)
OVCAR-8
  GI50: 5.85 µM (inactive)
A549
  GI50: 6.81 µM (inactive)
786-0
  GI50: 2.88 µM (inactive)
SNB-78
  GI50: 26 µM (inactive)
CAKI-1
  GI50: 16.5 µM (inactive)
HT-29
  GI50: 2.79 µM (inactive)
UACC-257
  GI50: 2.16 µM (inactive)
NCI-H460
  GI50: 20.5 µM (inactive)
HL-60
  GI50: 0.481 µM (active)
HOP-18
  GI50: 1.42 µM (inactive)
SNB-75
  GI50: 15.8 µM (inactive)
SN12C
  GI50: 19.5 µM (inactive)
NCI-H226
  GI50: 15.8 µM (inactive)
SK-MEL-5
  GI50: 2.28 µM (inactive)
NCI-H23
  GI50: 11.1 µM (inactive)
Malme-3M
  GI50: 1.8 µM (inactive)
IGROV-1
  GI50: 15.6 µM (inactive)
ACHN
  GI50: 5.12 µM (inactive)
DMS-273
  GI50: 19.9 µM (inactive)
COLO 205
  GI50: 1.91 µM (inactive)
OVCAR-3
  GI50: 4.37 µM (inactive)
OVCAR-4
  GI50: 5.31 µM (inactive)
RPMI-8226
  GI50: 1.06 µM (active)
XF498
  GI50: 5.2 µM (inactive)
SNB-19
  GI50: 19.8 µM (inactive)
SF-295
  GI50: 5.14 µM (inactive)
HCT-15
  GI50: 6.11 µM
SK-MEL-28
  GI50: 16 µM (inactive)
UACC-62
  GI50: 5.58 µM (inactive)
UO-31
  GI50: 13.9 µM (inactive)
EKVX
  GI50: 8.11 µM (inactive)
SW-620
  GI50: 1.28 µM (inactive)
HOP-92
  GI50: 1.49 µM (inactive)
SK-OV-3
  GI50: 18.5 µM (inactive)
U-251
  GI50: 10.8 µM (inactive)
SR
  GI50: 0.26 µM (active)
A498
  GI50: 17.1 µM (inactive)
LOX IMVI
  GI50: 8.77 µM (inactive)

## COc1cc(Br)c(CC2(C#N)c3ccccc3C3C(N2C(=O)c2ccccc2)C3(Cl)Cl)cc1OC (centres undefined)
NCI-H522
  GI50: 3.52 µM (inactive)
SK-MEL-2
  GI50: > 65.5 µM (inactive)
DLD-1
  GI50: 19.3 µM (inactive)
RXF 393
  GI50: > 65.5 µM (inactive)
KM-20L2
  GI50: > 65.5 µM (inactive)
SF-539
  GI50: 48 µM (inactive)
MOLT-4
  GI50: 2.03 µM (inactive)
KM12
  GI50: 23.1 µM (inactive)
CCRF-CEM
  GI50: > 65.5 µM (inactive)
HCC 2998
  GI50: 20.9 µM (inactive)
DMS-114
  GI50: 16.3 µM (inactive)
K562
  GI50: 5.7 µM (inactive)
LXFL 529
  GI50: 4.01 µM (inactive)
SF-268
  GI50: > 65.5 µM (inactive)
M14
  GI50: 42.4 µM (inactive)
HCT-116
  GI50: > 65.5 µM (inactive)
OVCAR-5
  GI50: > 65.5 µM (inactive)
TK-10
  GI50: > 65.5 µM (inactive)
OVCAR-8
  GI50: > 65.5 µM (inactive)
A549
  GI50: > 65.5 µM (inactive)
786-0
  GI50: > 65.5 µM (inactive)
SNB-78
  GI50: > 65.5 µM (inactive)
HT-29
  GI50: > 65.5 µM (inactive)
UACC-257
  GI50: 15.8 µM (inactive)
NCI-H460
  GI50: 4.83 µM (inactive)
HL-60
  GI50: 1.51 µM (inactive)
HOP-18
  GI50: > 65.5 µM (inactive)
SNB-75
  GI50: > 65.5 µM (inactive)
SN12C
  GI50: > 65.5 µM (inactive)
NCI-H226
  GI50: > 65.5 µM (inactive)
SK-MEL-5
  GI50: 2.94 µM (inactive)
NCI-H23
  GI50: > 65.5 µM (inactive)
Malme-3M
  GI50: > 65.5 µM (inactive)
IGROV-1
  GI50: > 65.5 µM (inactive)
ACHN
  GI50: > 65.5 µM (inactive)
DMS-273
  GI50: 2.69 µM (inactive)
COLO 205
  GI50: 10.4 µM (inactive)
OVCAR-3
  GI50: 15.1 µM (inactive)
RPMI-8226
  GI50: 0.935 µM (active)
XF498
  GI50: > 65.5 µM (inactive)
SNB-19
  GI50: > 65.5 µM (inactive)
HCT-15
  GI50: > 65.5 µM
SK-MEL-28
  GI50: > 65.5 µM (inactive)
UACC-62
  GI50: 33.5 µM (inactive)
UO-31
  GI50: 50.6 µM (inactive)
EKVX
  GI50: > 65.5 µM (inactive)
SW-620
  GI50: > 65.5 µM (inactive)
HOP-92
  GI50: > 65.5 µM (inactive)
SK-OV-3
  GI50: > 65.5 µM (inactive)
U-251
  GI50: 39.4 µM (inactive)
SR
  GI50: 4.01 µM (inactive)
LOX IMVI
  GI50: > 65.5 µM (inactive)
